According to patent US20220073521A1, “PYRIMIDINE AND FIVE-MEMBERED NITROGEN HETEROCYCLE DERIVATIVE, PREPARATION METHOD THEREFOR, AND MEDICAL USES THEREOF” (Tuojie Biotech (Shanghai) Co., Ltd., priority 2018, published 2022):
Read-outs that look alike come from different tables or passages of the source.

Columns and labels:
p-ERK in KYSE-520 cells = experiment: Determination of p-ERK in KYSE-520 cells (HTRF); assay type: cell-based; conditions: Homo sapiens
[1] = Pharmacokinetics assay in rats; assay type: in vivo, SD rats; conditions: rat; for AUC / clearance / half-life / bioavailability / Cmax: male, SD, plasma; for AUC: read-out: Area under curve AUC; for clearance: read-out: Clearance CL_obs; for half-life: read-out: Half-life T1/2 (converted); for bioavailability: PO 5 mg/kg vs IV 1 mg/kg, read-out: Bioavailability F; for Cmax: read-out: Maximum plasma concentration Cmax
Experimental: Rats were used as test animals. The drug concentration in plasma at different time points was determined by LC/MS/MS method after intravenous administration or intragastrical administration of the compound of the present invention to rats. The pharmacokinetic behavior of the compound of the present invention was studied and evaluated in rats.
The atropisomer with a RT of 1.495 minutes in Examples 3 and 4, compounds of Example 17, Example 41 and Example 43.
Healthy male SD rats (6-8 weeks old), 3 rats per group.
Intravenous administration: A certain amount of the test compound was weighed, to which 10% by volume of N,N-dimethylacetamide, 33% by volume of triethylene glycol and 57% by volume of water were added to prepare a 1 mg/mL colorless, clear and transparent solution;
Intragastrical administration: A certain amount of the test compound was weighed, to which 0.5% by mass of hypromellose, 0.1% by volume of Tween 80 and 99.4% by volume of water were added to prepare a 1 mg/mL white suspension.
After an overnight fast, the SD rats were intravenously administered the test compound at an administration dose of 1 mg/kg, or intragastrically administered the test compound at an administration dose of 5 mg/kg.
(§1) The rats were intravenously administered the compound of the present invention. 0.2 ml of blood was taken from the jugular vein at 0.083, 0.25, 0.5, 1, 2, 4, 8 and 24 hours after the administration. The samples were placed in tubes containing EDTA-K2, and centrifuged at 4000 rpm and 4° C. for 5 minutes to separate the blood plasma. The plasma samples were stored at −75° C.
as §1, with “Or, the rats” for “The rats”, “were intragastrically” for “were intravenously”, “at” for “at 0.083,”
The content of the test compound in the plasma of rat after intragastrical administration of the test compound at different concentrations was determined: 50 μL of rat plasma at each time after administration was taken, to which 200 μL of a solution (50 ng/mL) of internal standard dexamethasone in acetonitrile was added. The plasma was vortex-mixed for 30 seconds, and centrifuged at 4700 rpm and 4° C. for 15 minutes. The supernatant was taken from the plasma samples, and a three-fold dilution was carried out by adding water. 2.0 μL of the supernatant was used for LC/MS/MS analysis.

SMILES	IC50 (p-ERK in KYSE-520 cells; 2 hours) [nM]	AUC ([1]; IV 1 mg/kg) [ng·h/mL]	clearance ([1]; IV 1 mg/kg) [mL/min/kg]	half-life ([1]; IV 1 mg/kg) [h]	bioavailability [1] [%]	AUC ([1]; PO 5 mg/kg) [ng·h/mL]	half-life ([1]; PO 5 mg/kg) [h]	Cmax ([1]; PO 5 mg/kg) [ng/mL]	Apparent distribution volume Vss_obs ([1]; IV 1 mg/kg) [L/kg]	IC50 (p-ERK in KYSE-520 cells; KYSE-520, 2 h) [nM]
CNc1nccc(Sc2c(C)nc(N3CCC4(CC3)Cc3ncccc3[C@H]4N)n3ccnc23)c1Cl [Example 41, (S)-1′-(8-((3-Chloro-2-(methylamino)pyridin-4-yl)thio)-7-methylimidazo[1,2-c]pyrimidin-5-yl)-5,7-dihydrospiro[cyclopenta[b]pyridine-6,4′-piperidin]-5-amine]	14	1130 ± 210	14.6 ± 2.6	5.33 ± 0.11	67.6 ± 10.9	3880 ± 631	4.22 ± 0.11	339 ± 88	4.75 ± 0.72	
CNc1nccc(Sc2cnc(N3CCC4(CC3)Cc3ncccc3[C@H]4N)n3ccnc23)c1Cl [Example 43, (S)-1′-(8-((3-Chloro-2-(methylamino)pyridin-4-yl)thio)imidazo[1,2-c]pyrimidin-5-yl)-5,7-dihydrospiro[cyclopenta[b]pyridine-6,4′-piperidin]-5-amine]		6640 ± 1360	2.52 ± 0.52	4.71 ± 0.27	75.4 ± 7.5	25200 ± 2500	4.17 ± 0.14	2510 ± 405	0.765 ± 0.082	4.8
